The source made the active and inactive calls. No cut-off for these calls is given here.
What was measured:
Quadruplex DNA [1] = assay: Binding affinity to 5' FAM-labeled c-myc G4-quadruplex DNA Pu22 (unknown origin) by fluorescence quench assay; format: nucleic-acid assay
Histone deacetylase 8 = target: T1, Histone deacetylase 8 (Homo sapiens, UniProt Q9BY41); assay: Inhibition of full length recombinant N-terminal GST-tagged human HDAC8 expressed in baculovirus infected Sf9 insect cells incubated for 50 mins by Glo- luminescence assay
T1 sequence (Q9BY41 whole entry): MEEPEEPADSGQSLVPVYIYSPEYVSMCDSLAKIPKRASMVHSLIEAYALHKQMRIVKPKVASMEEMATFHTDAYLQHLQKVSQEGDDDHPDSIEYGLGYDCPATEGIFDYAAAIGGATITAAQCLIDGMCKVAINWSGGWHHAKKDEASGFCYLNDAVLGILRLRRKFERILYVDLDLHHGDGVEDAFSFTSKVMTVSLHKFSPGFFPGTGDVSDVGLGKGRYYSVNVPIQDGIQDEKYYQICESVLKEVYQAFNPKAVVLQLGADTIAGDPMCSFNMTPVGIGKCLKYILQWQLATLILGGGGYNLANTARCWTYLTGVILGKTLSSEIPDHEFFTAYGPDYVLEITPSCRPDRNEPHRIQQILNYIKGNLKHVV

Histone deacetylase 4 = Histone deacetylase 4 (Homo sapiens, UniProt P56524); assay: Inhibition of full length recombinant N-terminal GST-tagged human HDAC4 (612 to end residues)expressed in baculovirus infected Sf9 insect cells incubated for 50 mins by Glo- luminescence assay
Histone deacetylase 4, sequence (P56524 whole entry): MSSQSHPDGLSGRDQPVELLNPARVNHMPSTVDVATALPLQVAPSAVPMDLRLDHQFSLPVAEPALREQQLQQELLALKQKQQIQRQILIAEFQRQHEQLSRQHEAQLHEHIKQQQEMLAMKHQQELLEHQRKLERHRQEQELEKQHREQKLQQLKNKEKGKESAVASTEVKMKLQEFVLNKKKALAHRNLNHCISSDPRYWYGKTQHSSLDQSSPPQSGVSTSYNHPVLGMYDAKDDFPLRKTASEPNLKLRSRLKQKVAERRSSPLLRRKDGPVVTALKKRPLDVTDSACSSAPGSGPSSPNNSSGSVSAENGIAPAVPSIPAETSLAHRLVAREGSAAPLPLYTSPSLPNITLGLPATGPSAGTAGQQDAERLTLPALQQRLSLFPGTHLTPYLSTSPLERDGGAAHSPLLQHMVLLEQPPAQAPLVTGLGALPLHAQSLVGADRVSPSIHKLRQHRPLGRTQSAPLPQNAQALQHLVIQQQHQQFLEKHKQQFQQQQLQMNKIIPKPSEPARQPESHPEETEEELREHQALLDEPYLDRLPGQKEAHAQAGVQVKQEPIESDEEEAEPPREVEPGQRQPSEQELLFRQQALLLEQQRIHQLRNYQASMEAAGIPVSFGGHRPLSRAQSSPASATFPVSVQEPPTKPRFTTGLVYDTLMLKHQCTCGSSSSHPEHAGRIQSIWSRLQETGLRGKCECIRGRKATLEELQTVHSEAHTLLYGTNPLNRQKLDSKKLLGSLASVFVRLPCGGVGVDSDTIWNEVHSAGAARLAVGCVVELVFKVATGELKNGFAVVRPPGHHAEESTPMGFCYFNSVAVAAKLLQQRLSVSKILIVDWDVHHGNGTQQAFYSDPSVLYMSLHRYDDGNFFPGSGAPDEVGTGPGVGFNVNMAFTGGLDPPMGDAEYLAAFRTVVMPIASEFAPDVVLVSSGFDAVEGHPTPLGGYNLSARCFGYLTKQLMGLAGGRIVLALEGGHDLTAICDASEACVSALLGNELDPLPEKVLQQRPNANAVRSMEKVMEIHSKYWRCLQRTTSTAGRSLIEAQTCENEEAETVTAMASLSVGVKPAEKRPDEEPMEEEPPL

Quadruplex DNA [2] = assay: Binding affinity to 5' FAM-labeled c-myc G4-quadruplex DNA HTG21 (unknown origin) assessed as dissociation constant by surface plasmon resonance assay; format: nucleic-acid assay
Quadruplex DNA [3] = assay: Binding affinity to 5' FAM and 3' TAMRA-labeled […] (unknown origin) assessed as change in melting temperature by fluorescence resonance energy transfer assay; format: nucleic-acid assay
Quadruplex DNA [4] = assay: Binding affinity to 5' FAM and 3' TAMRA-labeled c-myc G4-quadruplex DNA duplex (unknown origin) assessed as change in melting temperature by fluorescence resonance energy transfer assay; format: nucleic-acid assay
[5] = Stabilization of DNA Pu22 (unknown origin ) single strand assessed as G4-quadruplex formation up to 30 uM in presence of potassium ions by spectrum based circular dichroism analysis
[6] = Stabilization of DNA Pu22 (unknown origin ) single strand assessed as G4-quadruplex formation in absence of potassium ions by spectrum based circular dichroism analysis; conditions: dose <= 30.0 µM; DDE = dose-dependent effect
MDA-MB-231 [7] = assay: Stabilization of DNA Pu22 (unknown origin ) in human MDA-MB-231 cells assessed as G4-quadruplex formation by measuring fold change at 1.25 to 5 uM incubated for 48 hrs by immunofluorescence based confocal laser scanning microscopic analysis; format: cell-based; conditions: dose 1.25-5 µM
MDA-MB-231 [8] = assay: Induction of DNA damage in human MDA-MB-231 cells at 1.25 to 5 uM assessed as increase in gamma-H2AX level and measured for 48 hrs by DAPI staining method; format: functional, cell-based; conditions: dose 1.25-5 µM
MDA-MB-231 [9] = assay: Cytotoxicity against human MDA-MB-231 cells harboring wild type BRCA1 and wild BRCA2 assessed as reduction in cell viability; format: functional, cell-based
BT-549 [10] = assay: Cytotoxicity against human BT-549 cells harboring wild type BRCA1 and wild type BRCA2 assessed as reduction in cell viability; format: functional, cell-based
MDA-MB-231 [11] = assay: Inhibition of colony formation in human MDA-MB-231 cells measured for 7 days by crystal violet staining based assay; format: functional, cell-based; conditions: dose 2.5 µM, time 7.0 day, DDE = dose-dependent effect
SUM-159-PT = assay: Inhibition of colony formation in human SUM159PT cells measured for 7 days by crystal violet staining based assay; format: functional, cell-based; conditions: dose 2.5 µM, time 7.0 day, DDE = dose-dependent effect
[12] = target: Histone deacetylase (Homo sapiens) (UniProt Q13547+O15379+Q9UBN7+Q92769+Q9UQL6+Q8WUI4+Q9BY41+Q96DB2+P56524+Q9UKV0+Q969S8); assay: Inhibition of HDAC in human BT-549 cells assessed as increase in acetylated alpha-tubulin level at 1.25 to 5 uM by Western blot analysis; format: cell-based; conditions: dose 1.25-5 µM
BT-549 [13] = assay: Induction of DNA damage in human BT-549 at 1.25 to 5 uM assessed as increase in gamma-H2AX level and measured for 48 hrs by DAPI staining method; format: functional, cell-based; conditions: dose 1.25-5 µM
MDA-MB-231 [14] = assay: Antitumor activity against human MDA-MB-231 cells xenografted in BALB/c-nu/nu mouse assessed as increment ratio at 2.5 mg/kg, ip measured for 31 days; format: functional; conditions: time 31 day
MDA-MB-231 [15] = assay: Antitumor activity against human MDA-MB-231 cells xenografted in BALB/c-nu/nu mouse assessed as tumor growth inhibition at 2.5 mg/kg, ip measured for 31 days; format: functional; conditions: MDA-MB-231, 744 h, time 31 day, read-out: TGI
[16] = Toxicity in BALB/c-nu/nu mouse at 2.5 mg/kg, ip measured for 31 days; format: organism-based; conditions: in vivo, 744 h, time 31 day
HeLa = assay: Potency index, ratio of SAHA IC50 to test compound IC50 for inhibition of HDAC in human HeLa nuclear extract
Quadruplex DNA [17] = conditions: dose 1.0 µM
Description: Binding affinity to 5' FAM and 3' TAMRA-labeled c-myc G4-quadruplex DNA Pu22 (unknown origin) assessed as change in melting temperature at 1 uM by fluorescence resonance energy transfer assay

## CN(C)CCCNC(=O)c1ccc(/C=C2\CCn3c2nc2cc(N4CCN(CCCCCCCC(=O)NO)CC4)c(F)cc2c3=O)cc1.Cl
Quadruplex DNA [1]
  DC50: 400 nM
Histone deacetylase 8
  IC50: 30 nM
Histone deacetylase 4
  IC50: 2640 nM
Quadruplex DNA [2]
  Kd: > 10000 nM
Quadruplex DNA [3]
  ΔTm: 1.2 °C
Quadruplex DNA [4]
  ΔTm: 0.1 °C
[5]
  Activity: Active
[6]
  Activity: Dde
MDA-MB-231 [7]
  fold change (FC): 8
MDA-MB-231 [8]
  Activity: Active
MDA-MB-231 [9]
  IC50: 4100 nM
BT-549 [10]
  IC50: 6500 nM
MDA-MB-231 [11]
  inhibition: Dde
SUM-159-PT
  inhibition: Dde
[12]
  inhibition: Active
BT-549 [13]
  Activity: Active
MDA-MB-231 [14]
  T/C: 36.2%
MDA-MB-231 [15]
  inhibition in vivo at 2.5 mg/kg: 69%
[16]
  Activity: Non-Toxic
HeLa
  Ratio IC50: 20
Quadruplex DNA [17]
  ΔTm: 16.7 °C
